In data set [1] the target is T1, NaV1.5 (Homo sapiens (Human), UniProt Q14524). Briefly: Sodium Influx Assay (Flux), NaV1.5.
Data set [2] concerns the target T1, NaV1.5. In words: Electrophysiological Assay (EP), patch voltage clamp, NaV1.5. The class given is cell-based. Particulars: HEK-293 cells, whole-cell patch clamp. A general note: Patch clamp records ionic current or voltage across a cell membrane.
For data set [3], the target named is T2, NaV1.1 (Homo sapiens (Human), UniProt P35498). In words: Sodium Influx Assay (Flux), NaV1.1.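 Further: channels co-expressed with human β1 subunit and held open by modulators, cells exposed to compounds for one hour at room temperature, IC50 from percent inhibition of influx.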 Format: cell-based. Particulars: Trex HEK293 cells, ANG2 dye, inactivated state.
Data set [4] addresses T3, NaV1.6 (Homo sapiens (Human), UniProt Q9UQD0). Briefly: Sodium Influx Assay (Flux), NaV1.6.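 Further: Tetracycline-induced cells, compounds applied for one hour at room temperature with modulators holding channels open, IC50 from percent inhibition of sodium influx.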 Particulars: Trex HEK293 cells, ANG2 dye, inactivated state. The class given is cell-based.
The target in data set [5] is T3, NaV1.6. In words: Electrophysiological Assay (EP), patch voltage clamp, NaV1.6.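 Further: sodium current recorded at ambient temperature, channels held inactivated then briefly repolarized to −150 mV for 20 ms before a test pulse, control currents in 0.5% DMSO.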 Format: cell-based. Particulars: HEK-293 cells, whole-cell patch clamp.
The target in data set [6] is T2, NaV1.1. Briefly: Electrophysiological Assay (EP), patch voltage clamp, NaV1.1.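 Further: sodium current block measured at ambient temperature, holding at fully inactivating potential, 20 ms repolarization to −150 mV before test pulse, versus 0.5% DMSO control currents.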 Format: cell-based. Particulars: HEK-293 cells, whole-cell patch clamp.
Data set [7] addresses T1, NaV1.5.
Where [8] appears, read: read-out: Flux NaV1.5 IC50, Trex HEK293 cells, ANG2 dye, inactivated state.

Where a name gives a salt, the structure may show the parent alone. Read-outs that look alike come from different tables or passages of the source.

T3 sequence (Q9UQD0 whole entry): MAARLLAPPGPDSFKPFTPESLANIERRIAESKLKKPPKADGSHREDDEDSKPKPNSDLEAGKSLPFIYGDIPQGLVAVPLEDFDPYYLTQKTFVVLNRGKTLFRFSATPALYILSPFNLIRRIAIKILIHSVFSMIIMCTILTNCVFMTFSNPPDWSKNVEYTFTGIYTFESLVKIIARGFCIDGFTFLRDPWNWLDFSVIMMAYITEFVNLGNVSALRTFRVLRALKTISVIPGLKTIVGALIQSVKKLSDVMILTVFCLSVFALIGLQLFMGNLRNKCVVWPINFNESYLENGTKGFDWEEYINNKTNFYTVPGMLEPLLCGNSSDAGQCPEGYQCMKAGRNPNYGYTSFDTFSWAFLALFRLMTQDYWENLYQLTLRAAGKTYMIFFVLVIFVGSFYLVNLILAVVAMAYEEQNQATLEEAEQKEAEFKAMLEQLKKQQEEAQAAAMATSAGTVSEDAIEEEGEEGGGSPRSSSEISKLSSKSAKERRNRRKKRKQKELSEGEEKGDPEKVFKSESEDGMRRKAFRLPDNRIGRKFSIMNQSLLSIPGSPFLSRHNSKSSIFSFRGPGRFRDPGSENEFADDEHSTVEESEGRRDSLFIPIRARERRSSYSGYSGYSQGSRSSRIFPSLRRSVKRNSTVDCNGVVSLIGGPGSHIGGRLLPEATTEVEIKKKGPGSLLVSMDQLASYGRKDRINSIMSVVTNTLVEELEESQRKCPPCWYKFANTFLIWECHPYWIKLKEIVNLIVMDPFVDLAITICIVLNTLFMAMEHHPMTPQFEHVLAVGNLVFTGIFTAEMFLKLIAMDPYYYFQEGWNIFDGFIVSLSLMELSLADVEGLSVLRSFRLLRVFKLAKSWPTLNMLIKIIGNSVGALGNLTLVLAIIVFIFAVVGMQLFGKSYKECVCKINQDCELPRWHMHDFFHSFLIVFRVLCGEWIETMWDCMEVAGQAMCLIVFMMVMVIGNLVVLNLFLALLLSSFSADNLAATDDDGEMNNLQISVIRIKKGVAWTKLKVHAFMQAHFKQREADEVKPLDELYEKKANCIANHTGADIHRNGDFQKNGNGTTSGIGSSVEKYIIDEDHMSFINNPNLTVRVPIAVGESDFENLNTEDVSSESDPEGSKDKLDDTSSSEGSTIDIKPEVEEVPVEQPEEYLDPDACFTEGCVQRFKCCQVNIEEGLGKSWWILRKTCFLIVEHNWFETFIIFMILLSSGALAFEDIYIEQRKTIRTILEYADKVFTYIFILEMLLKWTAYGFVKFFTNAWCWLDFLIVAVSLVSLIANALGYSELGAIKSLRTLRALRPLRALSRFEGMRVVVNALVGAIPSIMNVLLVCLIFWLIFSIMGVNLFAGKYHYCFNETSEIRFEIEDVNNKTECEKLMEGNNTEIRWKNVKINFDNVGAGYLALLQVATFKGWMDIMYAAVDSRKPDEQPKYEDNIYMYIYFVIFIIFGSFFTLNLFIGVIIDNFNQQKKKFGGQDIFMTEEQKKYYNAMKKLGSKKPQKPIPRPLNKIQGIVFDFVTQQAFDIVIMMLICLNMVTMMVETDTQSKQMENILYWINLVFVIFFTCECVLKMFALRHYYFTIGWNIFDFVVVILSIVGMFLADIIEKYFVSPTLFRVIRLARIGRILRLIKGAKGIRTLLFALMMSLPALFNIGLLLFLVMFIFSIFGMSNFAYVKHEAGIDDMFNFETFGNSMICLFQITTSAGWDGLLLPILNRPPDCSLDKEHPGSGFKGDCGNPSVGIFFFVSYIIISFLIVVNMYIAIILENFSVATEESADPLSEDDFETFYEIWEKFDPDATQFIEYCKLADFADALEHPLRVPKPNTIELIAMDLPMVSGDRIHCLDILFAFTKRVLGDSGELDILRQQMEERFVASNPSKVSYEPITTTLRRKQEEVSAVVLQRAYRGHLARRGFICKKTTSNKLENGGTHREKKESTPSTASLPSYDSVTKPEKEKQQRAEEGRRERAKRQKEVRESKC
T1 sequence (Q14524 other isoform, or with tags, fused parts or gaps): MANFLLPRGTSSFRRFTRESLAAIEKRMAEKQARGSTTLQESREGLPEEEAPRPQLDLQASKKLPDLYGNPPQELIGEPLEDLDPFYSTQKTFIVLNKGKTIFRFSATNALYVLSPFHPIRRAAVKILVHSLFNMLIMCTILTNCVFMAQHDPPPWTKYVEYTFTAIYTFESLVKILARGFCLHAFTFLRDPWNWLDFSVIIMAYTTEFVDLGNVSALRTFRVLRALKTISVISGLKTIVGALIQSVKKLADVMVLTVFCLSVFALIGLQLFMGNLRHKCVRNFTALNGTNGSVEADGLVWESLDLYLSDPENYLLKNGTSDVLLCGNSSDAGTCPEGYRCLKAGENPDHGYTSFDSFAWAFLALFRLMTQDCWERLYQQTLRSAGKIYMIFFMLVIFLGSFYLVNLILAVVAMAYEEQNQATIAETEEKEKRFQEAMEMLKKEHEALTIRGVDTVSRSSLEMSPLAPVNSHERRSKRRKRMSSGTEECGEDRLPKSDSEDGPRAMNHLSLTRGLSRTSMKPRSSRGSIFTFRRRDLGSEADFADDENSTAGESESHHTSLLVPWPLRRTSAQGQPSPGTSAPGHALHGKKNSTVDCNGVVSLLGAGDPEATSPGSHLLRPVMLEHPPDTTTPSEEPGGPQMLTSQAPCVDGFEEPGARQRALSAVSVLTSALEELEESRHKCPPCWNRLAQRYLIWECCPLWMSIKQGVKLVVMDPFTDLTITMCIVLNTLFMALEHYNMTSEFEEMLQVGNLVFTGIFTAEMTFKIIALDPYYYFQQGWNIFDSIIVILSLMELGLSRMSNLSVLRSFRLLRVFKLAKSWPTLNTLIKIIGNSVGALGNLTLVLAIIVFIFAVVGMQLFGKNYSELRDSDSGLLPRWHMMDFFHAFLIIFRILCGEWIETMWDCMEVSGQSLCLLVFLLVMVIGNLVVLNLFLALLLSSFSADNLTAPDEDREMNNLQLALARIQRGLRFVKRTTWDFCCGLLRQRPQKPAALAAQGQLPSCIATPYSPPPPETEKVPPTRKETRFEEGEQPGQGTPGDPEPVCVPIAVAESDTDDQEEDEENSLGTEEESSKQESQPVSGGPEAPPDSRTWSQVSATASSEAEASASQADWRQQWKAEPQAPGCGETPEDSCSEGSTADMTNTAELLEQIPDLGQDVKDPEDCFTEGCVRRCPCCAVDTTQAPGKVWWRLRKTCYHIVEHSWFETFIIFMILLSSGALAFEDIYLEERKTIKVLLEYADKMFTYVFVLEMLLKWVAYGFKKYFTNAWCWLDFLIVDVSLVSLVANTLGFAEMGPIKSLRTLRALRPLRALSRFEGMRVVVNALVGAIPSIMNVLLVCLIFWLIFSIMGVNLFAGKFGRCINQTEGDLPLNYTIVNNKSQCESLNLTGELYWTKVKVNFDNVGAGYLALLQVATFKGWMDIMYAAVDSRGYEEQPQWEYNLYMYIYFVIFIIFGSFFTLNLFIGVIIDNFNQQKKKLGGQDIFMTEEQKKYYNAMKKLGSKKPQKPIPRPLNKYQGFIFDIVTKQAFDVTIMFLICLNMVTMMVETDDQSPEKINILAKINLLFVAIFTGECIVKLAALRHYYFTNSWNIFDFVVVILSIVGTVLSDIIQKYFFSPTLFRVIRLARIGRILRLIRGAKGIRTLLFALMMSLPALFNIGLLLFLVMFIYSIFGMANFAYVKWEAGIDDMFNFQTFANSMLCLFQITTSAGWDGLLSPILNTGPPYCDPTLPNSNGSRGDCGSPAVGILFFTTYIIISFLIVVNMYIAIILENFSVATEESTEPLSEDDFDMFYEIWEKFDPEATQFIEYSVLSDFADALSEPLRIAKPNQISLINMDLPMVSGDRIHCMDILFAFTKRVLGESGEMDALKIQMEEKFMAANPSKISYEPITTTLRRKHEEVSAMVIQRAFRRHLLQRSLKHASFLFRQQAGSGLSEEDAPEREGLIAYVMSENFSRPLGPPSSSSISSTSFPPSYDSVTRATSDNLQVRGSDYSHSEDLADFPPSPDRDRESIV

As to `C[C@H](Nc1cc(F)c(S(=O)(=O)Nc2cscn2)cc1Cl)c1cc(Cl)ccc1F` [Example 5, (S)-5-chloro-4-((1-(5-chloro-2-fluorophenyl)ethyl)amino)-2-fluoro-N-(thiazol-4-yl)benzenesulfonamide], the half-inhibitory concentration (IC50) (as a rule, the point on the concentration scale where inhibition reaches its midpoint) on NaV1.5 [1] (setting [8]) came out at 5.31 µM; against NaV1.5 [2] it was 10 µM; at NaV1.1 [3], 4.83 µM; at NaV1.6 [4], 785 nM; against NaV1.6 [5], 152 nM; on NaV1.1 [6] it was 10 µM.

Regarding `C[C@H](Nc1cc(F)c(S(=O)(=O)Nc2nccs2)cc1Cl)c1ccccc1F` [Example 45, (S)-5-chloro-2-fluoro-4-((1-(2-fluorophenyl)ethyl)amino)-N-(thiazol-2-yl)benzenesulfonamide], the IC50 is 6.26 µM at NaV1.5 [1] (setting [8]); 5.15 µM at NaV1.5 [2]; 1.18 µM against NaV1.1 [3]; 108 nM against NaV1.6 [4]; 13 nM at NaV1.6 [5]; 0.539 µM on NaV1.1 [6].

Turning to `O=S(=O)(Nc1nccs1)c1cc(Cl)c(NCc2cccc3ccncc23)cc1F` [Example 61, 5-chloro-2-fluoro-4-((isoquinolin-8-ylmethyl)amino)-N-(thiazol-2-yl)benzenesulfonamide], the IC50 on NaV1.5 [1] (setting [8]) came out at 8.91 µM; on NaV1.5 [2], 10 µM; against NaV1.1 [3], 1.13 µM; at NaV1.6 [4] it was 21 nM; at NaV1.6 [5], 4 nM; on NaV1.1 [6], 0.283 µM.

In the case of `C[C@H](Oc1cc(F)c(S(=O)(=O)Nc2nccs2)cc1Cl)c1ccccc1F` [Example 116, (S)-5-chloro-2-fluoro-4-(1-(2-fluorophenyl)ethoxy)-N-(thiazol-2-yl)benzenesulfonamide], the IC50 at NaV1.5 [1] (setting [8]) was found to be 4.58 µM; against NaV1.5 [2], 14.3 µM; against NaV1.1 [3], 5.78 µM; on NaV1.6 [4], 477 nM; against NaV1.6 [5], 37 nM; on NaV1.1 [6], 9.89 µM.

As to `CCC(Nc1ccc(S(=O)(=O)Nc2ncns2)cc1Cl)c1ccccc1` (stereo not drawn) [Example 139, 3-chloro-4-(1-phenylpropylamino)-N-(1,2,4-thiadiazol-5-yl)benzenesulfonamide], the concentration for half-maximal inhibition (IC50) is 12.9 µM against NaV1.5 [1]; ≥ 30 µM against NaV1.5 [2]; 1.29 µM against NaV1.1 [3]; 107 nM on NaV1.6 [4]; 38 nM at NaV1.6 [5].

In the case of `C[C@H]1CCCN1Cc1cccc(F)c1CNc1cc(F)c(S(=O)(=O)Nc2cscn2)c(F)c1` [Example 158, (S)-2,6-difluoro-4-((2-fluoro-6-((2-methylpyrrolidin-1-yl)methyl)benzyl)amino)-N-(thiazol-4-yl)benzenesulfonamide formate], the half-inhibitory concentration (IC50) at NaV1.1 [3] came out at 30 µM; against NaV1.6 [4] it was 126 nM; at NaV1.5 [7], 30 µM.

For `CN(Cc1cccc(F)c1CNc1cc(F)c(S(=O)(=O)Nc2cscn2)c(F)c1)CC1CC1` [Example 187, 4-((2-(((cyclopropylmethyl)(methyl)amino)methyl)-6-fluorobenzyl)amino)-2,6-difluoro-N-(thiazol-4-yl)benzenesulfonamide formate], the IC50 came to 12.4 µM at NaV1.1 [3], 65 nM against NaV1.6 [4] and 30 µM against NaV1.5 [7].

Take `C[C@H](Nc1ccc(S(=O)(=O)Nc2cscn2)c(F)c1Cl)c1cc(Cl)ccc1F` [Example 190, (S)-3-chloro-4-((1-(5-chloro-2-fluorophenyl)ethyl)amino)-2-fluoro-N-(thiazol-4-yl)benzenesulfonamide]: the IC50 at NaV1.5 [1] (setting [8]) was found to be 25.8 µM; against NaV1.5 [2], 30 µM; at NaV1.1 [3] it was 13.4 µM; against NaV1.6 [4], 571 nM; against NaV1.6 [5], 55 nM; at NaV1.1 [6], 9.71 µM.

As for `CC1(C)CCN1Cc1c(F)cccc1CNc1cc(F)c(S(=O)(=O)Nc2cscn2)c(F)c1` [Example 198, 4-((2-((2,2-dimethylazetidin-1-yl)methyl)-3-fluorobenzyl)amino)-2,6-difluoro-N-(thiazol-4-yl)benzenesulfonamide formate], the IC50 at NaV1.1 [3] amounted to 25.8 µM; against NaV1.6 [4] it was 391 nM; at NaV1.5 [7] it was 30 µM.

As for `C[C@H](Nc1cc(F)c(S(=O)(=O)Nc2cscn2)cc1Cl)c1cc(CCN2CCC2)ccc1F` [Example 257, (S)-4-((1-(5-(2-(azetidin-1-yl)ethyl)-2-fluorophenyl)ethyl)amino)-5-chloro-2-fluoro-N-(thiazol-4-yl)benzenesulfonamide formate], the IC50 was 6.1 µM on NaV1.1 [3], 490 nM on NaV1.6 [4] and 8.39 µM at NaV1.5 [7].

For the molecule `O=S(=O)(Nc1cscn1)c1c(F)cc(NCc2ccccc2CN2CCC2)cc1F` [Example 272, 4-((2-(azetidin-1-ylmethyl)benzyl)amino)-2,6-difluoro-N-(thiazol-4-yl)benzenesulfonamide formate], the IC50 at NaV1.5 [1] (setting [8]) was found to be 30 µM; against NaV1.5 [2], 30 µM; against NaV1.1 [3], 20.7 µM; at NaV1.6 [4] it was 163 nM; against NaV1.6 [5] it was 31 nM; against NaV1.1 [6], 10 µM.

On to `CC[C@H](Nc1cc(F)c(S(=O)(=O)Nc2ccncn2)cc1Cl)c1ccccc1Cl` [Example 277, (S)-5-chloro-4-((1-(2-chlorophenyl)propyl)amino)-2-fluoro-N-(pyrimidin-4-yl)benzenesulfonamide 2,2,2-trifluoroacetate], for which the IC50 was found to be 9.39 µM on NaV1.5 [1] (setting [8]); 10 µM against NaV1.5 [2]; 3.77 µM at NaV1.1 [3]; 380 nM at NaV1.6 [4]; 43 nM on NaV1.6 [5]; 5.59 µM at NaV1.1 [6].

Regarding `O=S(=O)(Nc1cscn1)c1c(F)cc(NCc2c(F)ccc(F)c2CN2CCC2)cc1F` [Example 283, 4-((2-(azetidin-1-ylmethyl)-3,6-difluorobenzyl)amino)-2,6-difluoro-N-(thiazol-4-yl)benzenesulfonamide], the half-maximal inhibitory concentration (IC50) on NaV1.5 [1] (setting [8]) is 28 µM; against NaV1.5 [2] it was 30 µM; at NaV1.1 [3] it was 14.9 µM; against NaV1.6 [4] it was 126 nM; at NaV1.6 [5], 11 nM; against NaV1.1 [6] it was 14.5 µM.

`O=S(=O)(Nc1cccnn1)c1c(F)cc(NCc2c(F)cccc2CN2CCC2)cc1F` [Example 333, 4-((2-(azetidin-1-ylmethyl)-6-fluorobenzyl)amino)-2,6-difluoro-N-(pyridazin-3-yl)benzenesulfonamide formate]: the half-maximal inhibitory concentration (IC50) at NaV1.5 [1] (setting [8]) was found to be 30 µM; against NaV1.1 [3] it was 30 µM; against NaV1.6 [4], 257 nM; at NaV1.6 [5], 186 nM; at NaV1.1 [6], 10 µM.

As to `O=S(=O)(Nc1cscn1)c1cc(Cl)c(N[C@H](c2cc(F)ccc2F)C(F)F)cc1F` [Example 335, (R)-5-chloro-4-((1-(2,5-difluorophenyl)-2,2-difluoroethyl)amino)-2-fluoro-N-(thiazol-4-yl)benzenesulfonamide], the IC50 at NaV1.5 [1] (setting [8]) was 21.2 µM; at NaV1.1 [3], 4.79 µM; on NaV1.6 [4] it was 385 nM; against NaV1.6 [5], 85 nM; against NaV1.1 [6], 10 µM.

Values taken from patent US11174268B2, “Benzenesulfonamide compouds and their use as therapeutic agents” (Xenon Pharmaceuticals Inc., priority 2016, dated 2021).
